Data: US20100009970A1, “COMPOSITIONS AND METHODS FOR TREATMENT OF VIRAL DISEASES” (Combinatorx (Singapore) Pte. Ltd., priority 2008, published 2010)
Values joined by “and” are separate entries in the source; they are usually repeats but may differ in a detail not shown here. Equal values may be shown once. Where a name gives a salt, the structure may show the parent alone. Read-outs that look alike come from different tables or passages of the source.

Key:
[1] = tested on: Huh7 cells expressing a subgenomic RNA replicon of Con1 (genotype 1b) sequence origin
in vitro = settings: human
[2] = tested on: Huh7 cells expressing a subgenomic RNA replicon of Con1 (genotype 1b) sequence origin; assay: microbe, parasite or virus in culture; settings: Hepatitis C virus
[3] = Huh-7, read-out: IC50 (uM) [SG]
[4] = GETYPE1B, Huh-7, 72 h, read-out: Max Effect @CC30 (inhibition)
[5] = Huh-7, 48 h, read-out: Max Effect
[6] = Huh-7, read-out: Max Effect@CC30 (inhibition)

| Structure (SMILES) | Max Effect@CC30 (inhibition) [1] | CC50 (in vitro; CC50 (uM) [SG]) [µM] | IC90 ([2]; Huh-7) [µM] | IC50 [2, 3] [µM] | Synergy Score [1] | TI (CC50/IC50) [1] | CC50 (in vitro; CC50) [µM] | CC50 (in vitro; CC50 (uM)) [µM] | Emax [2, 4] [%] | IC50 ([2]; Huh-7, 48 h) [µM] | Emax [2, 5] [%] | IC50 ([2]; Huh-7, 72 h) [µM] | Emax [2, 6] [%] | IC50 [1] [µM] | IC90 [1] | IC50 ([2]; Huh-7) [µM] | IC90 ([2]; Huh-7, 72 h) [µM] | CC50 at 48 h (in vitro; CC50) [µM] |
| --- | --- | --- | --- | --- | --- | --- | --- | --- | --- | --- | --- | --- | --- | --- | --- | --- | --- | --- |
| COC1CC[C@@H](c2ccc(Cl)c(Cl)c2)c2ccccc21 (single isomer, unassigned) [Methoxy 4S-Sertraline-P1] | 93.98% | > 50 | 46.1 | 22.7 |  |  |  |  |  |  |  |  |  |  |  |  |  |  |
| N[C@@H]1CC[C@H](c2ccc(Cl)c(Cl)c2)c2ccccc21 [(1R,4R)-Desmethyl Sertraline, (1R,4R)-4-(3,4-dichlorophenyl)-1,2,3,4-tetrahydronaphthalen-1-amine] |  | 8.1 |  | 8.7 | 0.57 | >1.206 | > 8.83 | 8.1 | 0 | 7.32 | 81 | 8.7 | 0 |  |  |  |  |  |
| CN(C)[C@H]1CC[C@@H](c2ccc(Cl)c(Cl)c2)c2ccc(NS(C)(=O)=O)cc21 [Dimethyl Sertraline Reverse Sulfonamide, N-((5S,8S)-5-(3,4-dichlorophenyl)-8-(dimethylamino)-5,6,7,8-tetrahydronaphthalen-2-yl)methanesulfonamide] |  | 16.5 |  | 3.45 | 1.22 |  | > 13.4 | 16.5 | 70 |  | 44 | 3.45 | 70 |  |  |  |  |  |
| COC1CC[C@@H](c2ccc(Cl)c(Cl)c2)c2ccccc21 (stereo partly drawn) [Methoxy 4S-Sertraline] | 93.98% and 47.76% |  |  |  |  |  |  | > 50 |  |  |  |  |  | 26.4 | 46.1 µM and 46.9 µM | 22.7 |  |  |
| CN(C)[C@H]1CC[C@@H](c2ccc(Cl)c(Cl)c2)c2ccccc21 [N,N-Dimethyl Sertraline, (1S,4S)-4-(3,4-dichlorophenyl)-N,N-dimethyl-1,2,3,4-tetrahydronaphthalen-1-amine] |  | 64.7 ± 10.6 | 18.1 ± 2.77 | 6.07 ± 2.2 | 0.89 | >1.727 | > 13.4 | 72.2 | 99 | 7.77 | 70 | 5.22 ± 2.2 | 99 |  |  |  | 17.1 ± 2.93 |  |
| CN[C@H]1CC[C@@H](c2ccc(Cl)c(Cl)c2)c2ccc(NS(=O)(=O)C3CC3)cc21 [N-((5S,8S)-5-(3,4-dichlorophenyl)-8-(methylamino)-5,6,7,8-tetrahydronaphthalen-2-yl)cyclopropanesulfonamide] | 56.82% | 7.45 | 10.7 | 5.62 |  |  |  | 7.45 |  |  |  |  | 58.8 |  |  | 5.63 |  |  |
| CN[C@H]1CC[C@@H](c2ccc(Cl)c(Cl)c2)c2ccc(CNS(C)(=O)=O)cc21 [N-(((5S,8S)-5-(3,4-dichlorophenyl)-8-(methylamino)-5,6,7,8-tetrahydronaphthalen-2-yl)methyl)methanesulfonamide] |  | 11.2 ± 0.3 |  | 3.28 ± 1.5 | 0.55 | 1.761 | 10.5 | 11.2 ± 0.3 | 59.7 ± 3.5 | 5.97 | 100 | 3.28 ± 1.5 | 59.7 ± 3.5 |  |  |  |  |  |
| CN[C@H]1CC[C@@H](c2ccc(Cl)c(Cl)c2)c2ccccc21 [Sertraline (e.g., hydrochloride), Sertraline, reference compound] |  |  |  |  | 2.76 |  |  |  |  |  | 99 |  |  |  |  |  |  | 8.83 |
| CN[C@H]1CC[C@@H](c2ccc(Cl)c(Cl)c2)c2ccc(CO)cc21 [Sertraline A-Ring Ethanol, ((5S,8S)-5-(3,4-dichlorophenyl)-8-(methylamino)-5,6,7,8-tetrahydronaphthalen-2-yl)methanol] |  | 14.2 ± 0.3 | 11.3 ± 2.91 | 2.85 ± 1.21 | 1.46 | 2.472 | 11.1 | 14.2 ± 0.3 | 92 ± 5.6 | 4.48 | 97 | 2.85 ± 1.21 | 92 ± 5.6 |  |  |  | 11.3 ± 2.91 |  |
| CN[C@H]1CC[C@@H](c2ccc(Cl)c(Cl)c2)c2ccc(C(=O)OC)cc21 [Sertraline A-ring Methyl Ester, (5S,8S)-methyl 5-(3,4-dichlorophenyl)-8-(methylamino)-5,6,7,8-tetrahydronaphthalene-2-carboxylate] |  | 13.7 |  | 9.13 | 0.51 | 1.248 | 8.01 | 13.7 | 78 | 6.42 | 99 | 9.13 | 78 |  |  |  |  |  |
| CNC1CCC(c2ccc(C(F)(F)F)cc2)c2ccccc21 (stereo not shown) [Sertraline B-Ring para-Trifluoromethane, N-methyl-4-(4-(trifluoromethyl)phenyl)-1,2,3,4-tetrahydronaphthalen-1-amine] |  | 14.2 |  | 13.4 | 1.93 | 1.299 | 15.9 | 14.2 | 0 | 12.2 | 99 | 13.4 | 0 |  |  |  |  |  |
| CNC1CCC(c2ccc(Oc3ccccc3)cc2)c2ccccc21 (stereo not shown) [Sertraline B-ring para-Phenoxy, N-methyl-4-(4-phenoxyphenyl)-1,2,3,4-tetrahydronaphthalen-1-amine] |  | 7.85 ± 1.48 |  | 4.02 ± 1.6 | 0.38 | 1.987 | 7.46 | 6.8 | 65 | 3.75 | 99 | 5.15 | 81 ± 22.6 |  |  |  |  |  |
| CN[C@H]1CC[C@@H](c2ccc(Cl)c(Cl)c2)c2ccc(S(=O)(=O)N(C)C)cc21 [Sertraline N,N-dimethylsulfonamide, (5S,8S)-5-(3,4-dichlorophenyl)-N,N-dimethyl-8-(methylamino)-5,6,7,8-tetrahydronaphthalene-2-sulfonamide] |  | 8.87 |  | 6.69 | 0.53 | 1.076 | 7.85 | 8.87 | 38 | 7.3 | 91 | 6.69 | 38 |  |  |  |  |  |
| CN[C@H]1CC[C@@H](c2ccc(Cl)c(Cl)c2)c2ccc(C#N)cc21 [Sertraline Nitrile, (5S,8S)-5-(3,4-dichlorophenyl)-8-(methylamino)-5,6,7,8-tetrahydronaphthalene-2-carbonitrile] |  | 14.8 |  | 4.81 | 0.52 | >1.796 | > 13.4 | 14.8 | 87 | 7.46 | 89 | 4.81 | 87 |  |  |  |  |  |
| CN[C@H]1CC[C@@H](c2ccc(Cl)c(Cl)c2)c2ccc(S(N)(=O)=O)cc21 [Sertraline Sulfonamide NH2, (5S,8S)-5-(3,4-dichlorophenyl)-8-(methylamino)-5,6,7,8-tetrahydronaphthalene-2-sulfonamide] |  | 9.99 ± 4.4 |  | 3.65 ± 2.3 | 0.49 | >2.226 | > 13.4 | 9.99 ± 4.4 | 63.5 ± 6.4 | 6.02 | 91 | 3.65 ± 2.3 | 63.5 ± 6.4 |  |  |  |  |  |
